# Data from patent publication US8188050B2, “Pharmaceutical and/or cosmetic composition containing peptides” (ISP Investments Inc., priority 2006, dated 2012).
# Entries after “also recorded” stand apart in the source; their conditions may differ.
# System: Biopsies of human skin
# Assay: Ex vivo study of the effect of the peptide on the synthesis of melanin (Fontana-Masson staining of skin biopsies)
# Assay type: cell-based
# Conditions: two applications daily, peptide 1% starting with a 50-ppm solution, 48 hours
# Experimental: The aim of this ex vivo study is to highlight the increase in melanization produced by the peptides according to the invention.
# Protocol: Biopsies of human skin 6 mm in diameter are held in an ex vivo culture in the presence of a specific medium (1 g/L DMEM, Ham's F-12, SVF, and antibiotics) on inserts deposited on 6-well plates. […] The duration of the treatment is 48 hours. The biopsies are subsequently fixed in 9% formaldehyde and NaCl (150 mM) for 10 hours and then enclosed in paraffin. Thin-sections of the skin 3 μm thick are then made, and the melanin is specifically stained by the Fontana-Masson technique.
substance,measurement,setting,value
"Thr-Leu-Leu-Ala (TLLA) [SEQ ID No. 3, peptide fragment of the protein SLC24A5]",Location/distribution of melanin in the epidermis,,located in the basal layer but is also transported into the supra-basal layers; also recorded: stimulates the entire process of melanin distribution in the epidermis
same,Synthesis of melanin by the melanocytes (conclusion),,strong increase in the synthesis of melanin
same,Intensity of melanin coloration of skin thin-sections (Fontana-Masson staining),vs. untreated sections,coloration of clearly increased intensity
